Laboratory results reported in ChEMBL document CHEMBL1159282, “Secondary Mold Metabolites, Part 49. Isolation, Structural Elucidation, and Biomimetic Synthesis of Trametol, a New 1-Arylpropane-1,2-diol Produced by the Fungus Trametes sp” (J Nat Prod, 1995).
The source made the active and inactive calls.

What was measured:
Type in all cases: functional, organism-based
Bacillus cereus = experiment: Antimicrobial activity against Bacillus cereus at 150 ug/disk
[1] = tested on: Cladosporium cladosporioides; experiment: Antimicrobial activity against Cladosporium cladosporioides at 150 ug/disk
Saccharomyces cerevisiae = experiment: Antimicrobial activity against Saccharomyces cerevisiae at 150 ug/disk
Escherichia coli = experiment: Antimicrobial activity against Escherichia coli at 150 ug/disk
Bacillus subtilis = experiment: Antimicrobial activity against Bacillus subtilis at 150 ug/disk

Measured: Activity

COc1ccc([C@@H](O)[C@H](C)O)cc1Cl
inactive: all assays above
